Test results: ChEMBL document CHEMBL5034014, “Melanocortin 1 Receptor Agonists Based on a Bivalent, Bicyclic Peptide Framework” (J Med Chem, 2021)
pEC50, pIC50, pKi: −log10 of the molar value. Bridge positions count the residues as written; N and C are the ends. Square brackets hold non-standard residues; d marks the D form. Peptide text beside a SMILES is read from it. NMeW = CN[C@@H](Cc1c[nH]c2ccccc12)C(=O)O; NMeR = CN[C@@H](CCCNC(=N)N)C(=O)O

Tests used:
Melanocortin receptor 4 [1] = target: T1, Melanocortin receptor 4 (Homo sapiens, UniProt P32245); test: Agonist activity at human melanocortin receptor 4 expressed in human T-REx-293 cells using high doxycycline assessed as stimulation of intracellular cAMP accumulation incubated for 45 mins by LANCE cAMP assay; format: functional
[2] = target: T2, Melanocyte-stimulating hormone receptor (Homo sapiens, UniProt Q01726); test: Displacement of [125I]-NDP-alpha-MSH from human MC1R expressed in HEK2936E cell membrane measured after 16-23 hrs by 1450 microbeta trilux scintillation proximity assay; format: cell membranes
Melanocortin receptor 4 [3] = target: T1, Melanocortin receptor 4; test: Agonist activity at human melanocortin receptor 4 expressed in human T-REx-293 cells using low doxycycline assessed as stimulation of intracellular cAMP accumulation incubated for 45 mins by LANCE cAMP assay; format: functional, cell-based
Melanocortin receptor 4 [4] = target: T1, Melanocortin receptor 4; test: Displacement of [125I]-NDP-alpha-MSH from human MC4R expressed in HEK2936E cell membrane measured after 16-23 hrs by 1450 microbeta trilux scintillation proximity assay; format: cell membranes
[5] = target: T2, Melanocyte-stimulating hormone receptor; test: Agonist activity at human melanocortin receptor 1 expressed in human T-Rex-293 cells assessed as stimulation of intracellular cAMP accumulation incubated for 45 mins by LANCE cAMP assay; format: functional, cell-based
Melanocortin receptor 3 [6] = target: T3, Melanocortin receptor 3 (Homo sapiens, UniProt P41968); test: Agonist activity at human melanocortin receptor 3 expressed in human T-REx-293 cells assessed as stimulation of intracellular cAMP accumulation incubated for 45 mins by LANCE cAMP assay; format: functional, cell-based
Melanocortin receptor 3 [7] = target: T3, Melanocortin receptor 3; test: Displacement of [125I]-NDP-alpha-MSH from human MC3R expressed in HEK2936E cell membrane measured after 16-23 hrs by 1450 microbeta trilux scintillation proximity assay; format: cell membranes
Melanocortin receptor 5 = Melanocortin receptor 5 (Homo sapiens, UniProt P33032); test: Displacement of [125I]-NDP-alpha-MSH from human MC5R expressed in HEK2936E cell membrane measured after 16-23 hrs by 1450 microbeta trilux scintillation proximity assay; format: cell membranes
Melanocortin receptor 5, sequence (P33032 whole entry): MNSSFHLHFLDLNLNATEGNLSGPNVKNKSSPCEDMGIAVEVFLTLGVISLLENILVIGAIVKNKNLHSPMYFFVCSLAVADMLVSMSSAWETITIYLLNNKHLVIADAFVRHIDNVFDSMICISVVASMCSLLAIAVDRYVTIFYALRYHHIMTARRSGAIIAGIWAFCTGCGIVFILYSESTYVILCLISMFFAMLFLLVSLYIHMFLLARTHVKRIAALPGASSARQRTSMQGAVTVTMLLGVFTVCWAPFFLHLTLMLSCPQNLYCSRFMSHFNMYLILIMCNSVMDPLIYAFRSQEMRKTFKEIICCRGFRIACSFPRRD

T1 sequence (P32245 whole entry): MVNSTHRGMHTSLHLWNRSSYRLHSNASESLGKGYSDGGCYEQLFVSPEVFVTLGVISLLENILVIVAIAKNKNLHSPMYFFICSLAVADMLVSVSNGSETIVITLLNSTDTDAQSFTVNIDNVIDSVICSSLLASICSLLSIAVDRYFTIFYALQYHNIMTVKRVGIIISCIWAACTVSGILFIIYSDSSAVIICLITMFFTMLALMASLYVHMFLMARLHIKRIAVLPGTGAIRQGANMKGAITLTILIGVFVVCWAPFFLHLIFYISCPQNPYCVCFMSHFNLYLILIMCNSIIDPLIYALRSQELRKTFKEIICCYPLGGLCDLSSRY
T3 sequence (P41968 whole entry): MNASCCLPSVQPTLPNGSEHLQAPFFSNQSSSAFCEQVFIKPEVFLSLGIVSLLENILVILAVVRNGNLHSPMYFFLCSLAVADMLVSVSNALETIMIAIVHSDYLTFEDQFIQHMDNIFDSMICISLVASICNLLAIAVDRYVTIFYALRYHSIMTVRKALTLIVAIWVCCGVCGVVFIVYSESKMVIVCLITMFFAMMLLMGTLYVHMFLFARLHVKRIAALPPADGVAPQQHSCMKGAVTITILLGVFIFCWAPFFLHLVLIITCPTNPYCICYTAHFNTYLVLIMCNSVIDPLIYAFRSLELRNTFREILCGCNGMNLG
T2 sequence (Q01726 whole entry): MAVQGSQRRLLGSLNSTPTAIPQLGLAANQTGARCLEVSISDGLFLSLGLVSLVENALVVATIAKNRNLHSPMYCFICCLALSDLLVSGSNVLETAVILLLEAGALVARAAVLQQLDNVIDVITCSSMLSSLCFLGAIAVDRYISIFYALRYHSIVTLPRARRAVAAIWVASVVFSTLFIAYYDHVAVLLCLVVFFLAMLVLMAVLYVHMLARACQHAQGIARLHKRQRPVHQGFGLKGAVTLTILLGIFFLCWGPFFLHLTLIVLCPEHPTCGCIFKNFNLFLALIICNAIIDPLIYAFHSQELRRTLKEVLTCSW

| Structure (SMILES) | pEC50 (Melanocortin receptor 4 [1]) | pKi [2] | pEC50 (Melanocortin receptor 4 [3]) | pKi (Melanocortin receptor 4 [4]) | pEC50 [5] | pEC50 (Melanocortin receptor 3 [6]) | pKi (Melanocortin receptor 3 [7]) | pIC50 (Melanocortin receptor 5) |
| --- | --- | --- | --- | --- | --- | --- | --- | --- |
| CC[C@H](C)[C@@H]1NC(=O)[C@@H]2CCCN2C(=O)[C@H](Cc2c[nH]c3ccccc23)NC(=O)[C@H](CCCNC(=N)N)N(C)C(=O)[C@@H](Cc2ccccc2)NC(=O)[C@H](Cc2c[nH]cn2)NC(=O)[C@H]([C@@H](C)O)NC(=O)[C@@H]2CSSC[C@H](NC1=O)C(=O)N[C@@H](Cc1c[nH]cn1)C(=O)N[C@@H](C)C(=O)N[C@@H](CCCNC(=N)N)C(=O)N[C@@H](Cc1c[nH]c3ccccc13)C(=O)N[C@@H](CCCNC(=N)N)C(=O)N2 | 9.52 | 8.55 | 8.46 | 7.97 | 9.10 | 8.18 | 6.41 | 6.17 |
| CC[C@H](C)[C@@H]1NC(=O)[C@@H]2CCCN2C(=O)[C@H](Cc2c[nH]c3ccccc23)NC(=O)[C@H](CCCNC(=N)N)N(C)C(=O)[C@@H](Cc2ccccc2)NC(=O)[C@H](Cc2c[nH]cn2)NC(=O)[C@H]([C@@H](C)O)NC(=O)[C@@H]2CSSC[C@H](NC1=O)C(=O)N[C@@H](Cc1c[nH]cn1)C(=O)N[C@H](Cc1ccccc1)C(=O)N[C@@H](C)C(=O)N[C@@H](Cc1c[nH]c3ccccc13)C(=O)N[C@@H](CCCNC(=N)N)C(=O)N2 | 8.66 | 7.82 | 7.35 | 7.04 | 8.65 | 7.25 | 5.94 | 6.23 |
| CC[C@H](C)[C@@H]1NC(=O)[C@@H]2CCCN2C(=O)[C@H](Cc2c[nH]c3ccccc23)NC(=O)[C@H](CCCNC(=N)N)N(C)C(=O)[C@@H](Cc2ccccc2)NC(=O)[C@H](Cc2c[nH]cn2)NC(=O)[C@H]([C@@H](C)O)NC(=O)[C@@H]2CSSC[C@H](NC1=O)C(=O)N[C@@H](Cc1c[nH]cn1)C(=O)N[C@H](Cc1ccccc1)C(=O)N[C@@H](CCCCN)C(=O)N[C@@H](Cc1c[nH]c3ccccc13)C(=O)N[C@@H](C)C(=O)N2 | 8.50 | 7.93 | 7.28 | 7.14 | 9.08 | 7.41 | 6.15 | 6.20 |
| CC[C@H](C)[C@@H]1NC(=O)[C@@H]2CCCN2C(=O)[C@H](Cc2c[nH]c3ccccc23)NC(=O)[C@H](CCCNC(=N)N)N(C)C(=O)[C@@H](Cc2ccccc2)NC(=O)[C@H](Cc2c[nH]cn2)NC(=O)[C@H]([C@@H](C)O)NC(=O)[C@@H]2CSSC[C@H](NC1=O)C(=O)N[C@@H](Cc1c[nH]cn1)C(=O)N[C@H](Cc1ccccc1)C(=O)N[C@@H](CCCNC(=N)N)C(=O)N[C@@H](Cc1c[nH]c3ccccc13)C(=O)N[C@@H](C)C(=O)N2 | 9.75 | 9.04 | 8.69 | 7.87 | 10.25 | 8.84 | 7.07 | 6.70 |
| CC[C@H](C)[C@@H]1NC(=O)[C@H](C)NC(=O)[C@H](Cc2c[nH]c3ccccc23)NC(=O)[C@H](CCCNC(=N)N)N(C)C(=O)[C@@H](Cc2ccccc2)NC(=O)[C@H](Cc2c[nH]cn2)NC(=O)[C@H]([C@@H](C)O)NC(=O)[C@@H]2CSSC[C@H](NC1=O)C(=O)N[C@@H](Cc1c[nH]cn1)C(=O)N[C@H](Cc1ccccc1)C(=O)N[C@@H](CCCNC(=N)N)C(=O)N[C@@H](Cc1c[nH]c3ccccc13)C(=O)N[C@@H](C)C(=O)N2 | 9.88 | 8.85 | 8.91 | 7.59 | 10.04 | 8.94 | 6.97 | 6.77 |
| CC[C@H](C)[C@@H]1NC(=O)[C@@H]2CCCN2C(=O)[C@H](Cc2c[nH]c3ccccc23)NC(=O)[C@H](CCCNC(=N)N)N(C)C(=O)[C@@H](Cc2ccccc2)NC(=O)[C@H](Cc2c[nH]cn2)NC(=O)[C@H]([C@@H](C)O)NC(=O)[C@@H]2CSSC[C@H](NC1=O)C(=O)N[C@@H](C)C(=O)N[C@H](Cc1ccccc1)C(=O)N[C@@H](CCCNC(=N)N)C(=O)N[C@@H](Cc1c[nH]c3ccccc13)C(=O)N[C@@H](CCCNC(=N)N)C(=O)N2 | 9.34 | 7.71 | 8.59 | 7.99 | 8.44 | 7.70 | 6.42 | 6.79 |
| CC[C@H](C)[C@@H]1NC(=O)[C@@H]2CCCN2C(=O)[C@H](Cc2c[nH]c3ccccc23)NC(=O)[C@H](CCCNC(=N)N)N(C)C(=O)[C@@H](Cc2ccccc2)NC(=O)[C@H](Cc2c[nH]cn2)NC(=O)[C@H]([C@@H](C)O)NC(=O)[C@@H](NC(C)=O)CSSC[C@@H](C(N)=O)NC1=O | 8.59 | 6.71 | 7.22 | 6.46 | 8.06 | 7.40 | 5.40 | 4.95 |
| CC[C@H](C)[C@@H]1NC(=O)[C@@H]2CCCN2C(=O)[C@H](Cc2c[nH]c3ccccc23)NC(=O)[C@H](CCCNC(=N)N)N(C)C(=O)[C@@H](Cc2ccccc2)NC(=O)[C@H](Cc2c[nH]cn2)NC(=O)[C@H]([C@@H](C)O)NC(=O)[C@@H]2CSSC[C@H](NC1=O)C(=O)N[C@@H](Cc1c[nH]cn1)C(=O)N[C@H](Cc1ccccc1)C(=O)N[C@@H](CCC(=O)O)C(=O)N[C@@H](Cc1c[nH]c3ccccc13)C(=O)N[C@@H](CCCNC(=N)N)C(=O)N2 | 8.41 | 7.38 | 6.98 | 6.51 | 8.44 | 7.02 | 5.30 | 5.57 |
| CC[C@H](C)[C@@H]1NC(=O)[C@@H]2CCCN2C(=O)[C@H](Cc2c[nH]c3ccccc23)N(C)C(=O)[C@H](CCCNC(=N)N)NC(=O)[C@@H](Cc2ccccc2)NC(=O)[C@H](Cc2cnc[nH]2)NC(=O)[C@H]([C@@H](C)O)NC(=O)[C@@H]2CSSC[C@H](NC1=O)C(=O)N[C@@H](Cc1ccccc1)C(=O)N1CCC[C@H]1C(=O)N[C@@H](CC(=O)O)C(=O)NCC(=O)N[C@@H](CCCNC(=N)N)C(=O)N2 (cyclo(CFPDGRCTH[dF]R[NMeW]PI); disulfide 1-7) | 8.51 | 6.47 | 7.33 | 6.21 | 7.19 | 6.55 | < 6.00 | 6.00 |
| CC[C@H](C)[C@@H]1NC(=O)[C@@H]2CCCN2C(=O)[C@H](Cc2c[nH]c3ccccc23)NC(=O)[C@H](CCCNC(=N)N)N(C)C(=O)[C@@H](Cc2ccccc2)NC(=O)[C@H](Cc2c[nH]cn2)NC(=O)[C@H](CC(=O)O)NC(=O)[C@@H]2CSSC[C@H](NC1=O)C(=O)N[C@@H](Cc1c[nH]cn1)C(=O)N[C@H](Cc1ccccc1)C(=O)N(C)[C@@H](CCCNC(=N)N)C(=O)N(C)[C@@H](Cc1c[nH]c3ccccc13)C(=O)N[C@@H](CCCNC(=N)N)C(=O)N2 | 8.89 | 9.10 | 7.64 | 6.86 | 9.96 | 7.95 | 6.32 | 5.70 |
| CC(=O)N[C@H]1CSSC[C@@H](C(N)=O)NC(=O)[C@H](CCCNC(=N)N)NC(=O)[C@H](Cc2c[nH]c3ccccc23)N(C)C(=O)[C@H](CCCNC(=N)N)N(C)C(=O)[C@H](Cc2ccccc2)NC(=O)[C@H](Cc2c[nH]cn2)NC1=O (Ac-CHF[NMeR][NMeW]RC-NH2; disulfide 1-7) | 7.20 | 7.25 | 5.44 | 5.69 | 8.26 | 6.40 | 5.50 | 5.00 |
